Data on twelve compounds can be found in US8796289B2 (AbbVie Inc., priority 2011, dated 2014).

GST-tagged-Wee1 kinase, sequence (P30291 whole entry): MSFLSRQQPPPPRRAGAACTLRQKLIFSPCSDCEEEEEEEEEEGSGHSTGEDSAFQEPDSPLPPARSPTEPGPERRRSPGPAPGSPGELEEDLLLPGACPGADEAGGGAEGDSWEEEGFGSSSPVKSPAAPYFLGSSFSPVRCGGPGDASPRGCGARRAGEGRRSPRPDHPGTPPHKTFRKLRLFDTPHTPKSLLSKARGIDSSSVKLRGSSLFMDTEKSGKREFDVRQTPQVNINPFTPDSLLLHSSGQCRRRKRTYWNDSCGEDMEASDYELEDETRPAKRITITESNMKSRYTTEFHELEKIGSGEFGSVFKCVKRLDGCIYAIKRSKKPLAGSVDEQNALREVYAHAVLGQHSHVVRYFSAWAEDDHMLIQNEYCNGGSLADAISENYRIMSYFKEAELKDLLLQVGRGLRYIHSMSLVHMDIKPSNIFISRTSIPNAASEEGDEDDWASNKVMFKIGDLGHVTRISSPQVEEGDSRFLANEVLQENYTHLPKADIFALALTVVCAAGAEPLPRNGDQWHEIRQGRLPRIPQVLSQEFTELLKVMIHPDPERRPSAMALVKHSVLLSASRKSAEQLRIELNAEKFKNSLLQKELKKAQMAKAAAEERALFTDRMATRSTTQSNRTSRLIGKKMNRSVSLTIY

In the experiment the target is GST-tagged-Wee1 kinase (Homo sapiens, UniProt P30291). Kind of experiment: Wee1 time-resolved fluorescence equilibrium binding assay (displacement of Oregon Green-labeled ATP-competitive kinase probe). The protocol:
Wee1 kinase was assayed using a time-resolved fluorescence equilibrium binding assay monitoring displacement of a rapidly reversible Oregon Green-labeled ATP-competitive kinase probe (N-(2-(2-(2-(4-(4-(5-chloro-4-(2-(1-hydroxycyclobutyl)thiazol-5-yl)-1H-pyrrolo[2,3-b]pyridin-2-yl)phenyl)piperazin-1-yl)ethoxy)ethoxy)ethyl)-2′,7′-difluoro-3′,6′-dihydroxy-3-oxo-3H-spiro[isobenzofuran-1,9′-xanthene]-5-carboxamide) by competitive Wee1 inhibitors.
By Ki is commonly meant a dissociation constant, usually derived from enzyme kinetics or from competition with a known ligand. A lower Ki goes with higher affinity. Turning to `CN1CCN(c2ccc(Nc3ncc4c(=O)n(-c5c(Cl)cccc5Cl)nc(-c5ccnc(C(=O)N(C)C)c5)c4n3)cc2)CC1` [Example 248, 4-[6-(2,6-dichlorophenyl)-2-{[4-(4-methylpiperazin-1-yl)phenyl]amino}-5-oxo-5,6-dihydropyrimido[4,5-d]pyridazin-8-yl]-N,N-dimethylpyridine-2-carboxamide], the Ki was 0.4 nM.
The value for `CN1CCc2ccc(Nc3ncc4c(=O)n(-c5ccccc5Cl)nc(-c5cccs5)c4n3)cc2C1` [Example 167, 6-(2-chlorophenyl)-2-[(2-methyl-1,2,3,4-tetrahydroisoquinolin-7-yl)amino]-8-(2-thienyl)pyrimido[4,5-d]pyridazin-5(6H)-one] was 0.4 nM; that for `CN1CCN(c2ccc(Nc3ncc4c(=O)n(-c5c(Cl)cccc5Cl)nc(-c5ccncc5)c4n3)cc2)CC1` [Example 156, 6-(2,6-dichlorophenyl)-2-{[4-(4-methylpiperazin-1-yl)phenyl]amino}-8-(pyridin-4-yl)pyrimido[4,5-d]pyridazin-5(6H)-one] was 0.03 nM.
For `CN1CCN(c2ccc(Nc3ncc4c(=O)n(-c5ccccc5Cl)nc(-c5ccsc5)c4n3)cc2)CC1` [Example 96, 6-(2-chlorophenyl)-2-{[4-(4-methylpiperazin-1-yl)phenyl]amino}-8-(3-thienyl)pyrimido[4,5-d]pyridazin-5(6H)-one], the Ki is 0.2 nM.
For the compound `C=CCn1nc(-c2ccc(-c3ncccn3)cc2)c2nc(Nc3ccc(N4CCN(C)CC4)cc3)ncc2c1=O` [Example 62, 6-allyl-2-{[4-(4-methylpiperazin-1-yl)phenyl]amino}-8-[4-(pyrimidin-2-yl)phenyl]pyrimido[4,5-d]pyridazin-5(6H)-one], the Ki is 11 nM.
The compound `CN1CCN(c2ccc(Nc3ncc4c(=O)n(-c5c(Cl)cccc5Cl)nc(-c5cccc(C(=O)O)c5)c4n3)cc2)CC1` [Example 190, 3-[6-(2,6-dichlorophenyl)-2-{[4-(4-methylpiperazin-1-yl)phenyl]amino}-5-oxo-5,6-dihydropyrimido[4,5-d]pyridazin-8-yl]benzoic acid] showed a Ki of 0.01 nM.
`Cc1nn(-c2c(F)cccc2Cl)c(=O)c2cnc(Nc3ccc4c(c3)CNCC43CC3)nc12` [Example 308] yielded a Ki of 1 nM.
In the case of `C=CCn1nc(-c2cccs2)c2nc(Nc3ccc(N4CCCC4=O)cc3)ncc2c1=O` [Example 124, 6-allyl-2-{[4-(2-oxopyrrolidin-1-yl)phenyl]amino}-8-(2-thienyl)pyrimido[4,5-d]pyridazin-5(6H)-one], the Ki is 75 nM.
`C=CCn1nc(-c2ccco2)c2nc(Nc3ccc(N4CCN(C(C)C)CC4)c(OC)c3)ncc2c1=O` [Example 136, 6-allyl-8-(2-furyl)-2-{[4-(4-isopropylpiperazin-1-yl)-3-methoxyphenyl]amino}pyrimido[4,5-d]pyridazin-5(6H)-one] displayed an inhibitory constant (Ki) of 14 nM.
In the case of `Cc1nn(-c2c(Cl)cccc2Cl)c(=O)c2cnc(Nc3cccc(N4CCN(CCCO)CC4)c3)nc12` [Example 510, 6-(2,6-dichlorophenyl)-2-({3-[4-(3-hydroxypropyl)piperazin-1-yl]phenyl}amino)-8-methylpyrimido[4,5-d]pyridazin-5(6H)-one], the Ki came to 1.1 nM.
On to `Cc1nn(-c2c(F)cccc2Cl)c(=O)c2cnc(Nc3ccc4c(c3)CN(C)CC4(C)C)nc12` [Example 311, 6-(2-chloro-6-fluorophenyl)-8-methyl-2-[(2,4,4-trimethyl-1,2,3,4-tetrahydroisoquinolin-7-yl)amino]pyrimido[4,5-d]pyridazin-5(6H)-one], for which affinity was put at a Ki of 1 nM.
In the case of `CN1CCN(c2ccc(Nc3ncc4c(=O)n(-c5c(Cl)cccc5Cl)nc(-c5ccnc(Cl)c5)c4n3)cc2)CC1` [Example 260, 8-(2-chloropyridin-4-yl)-6-(2,6-dichlorophenyl)-2-{[4-(4-methylpiperazin-1-yl)phenyl]amino}pyrimido[4,5-d]pyridazin-5(6H)-one], the Ki worked out at 0.2 nM.
